In publication PMC8016481, “Tachykinin signaling inhibits task-specific behavioral responsiveness in honeybee workers” (eLife, 2021):
Entries after “also recorded” stand apart in the source; their conditions may differ.

Columns and labels:
honeybee TRPR [1] = assay: Competitive binding of TRPs to TRPR in Sf21 cells (displacement of TAMRA-TRP2/TAMRA-TRP3); set-up: species or system Apis mellifera
ERK phosphorylation = ERK phosphorylation in brain of worker bees after TRP2 injection or TRP/TRPR knockdown (Western blot); assay type: in vivo, Apis mellifera ligustica; details: for ERK phosphorylation in brain: 6A
Protocol: Cells were seeded in 24-well plates and starved for 4 hr in serum-free medium to reduce background ERK1/2 activation and eliminate the effects of the change of medium. […] Protein concentration was determined according to the Bradford method using BSA as the standard and the absorption was measured at 595 nm (spectrophotometer DU800, Beckman Coulter, USA), then all the samples were kept in −80°C for further use. For Western blot, equal amounts of total cell lysate (20 μg/lane) were fractionated by SDS-PAGE (10%) and transferred to a PVDF membrane (Millipore, USA) using an iBlot dry blotting system (Invitrogen, USA). The membranes were blocked for 2 hr at room temperature and then incubated with rabbit monoclonal anti-pERK1/2 antibody (Cell Signaling Technology, USA) and anti-rabbit horseradish peroxidase-conjugated secondary antibody (Cell Signaling Technology) according to the manufacturers’ protocols. Antibody reactive bands were visualized using Pierce ECL western blotting substrate (Thermo Fisher Scientific, USA) followed by photographic film exposure. Total ERK1/2 was assessed as a loading control after p-ERK1/2 chemiluminescence detection. Quantification analyses were performed using Gel-Pro Analyzer 4.0 software (Media Cybernetics, USA).
Three independent replicate groups per condition were collected and Western blot analyses were performed: Honeybee brains were carefully dissected and frozen at −80°C until protein extraction. Brain protein extractions were carried out according to our previously described method with some modifications. Briefly, the […] were homogenized with lysis buffer (LB, 8 M urea, 2 M thiourea, 4% CHAPS, 20 mM Tris-base, 30 mM dithiothreitol). The mixture was homogenized for 30 min on ice and sonicated 20 s per 5 min during this time, then centrifuged at 12,000 g and 4°C for 10 min. Ice-cold acetone was added to the collected supernatants, and then the mixture was kept on ice for 30 min for protein precipitation. Subsequently, the mixture was centrifuged at 12,000 g and 4°C for 10 min. The supernatant was discarded and the pellets were resolved in LB and kept at −20°C for further use. Western blot analyses were performed as described in 'TRP/TRPR signaling targets: cAMP, Ca^2+, and ERK' section.

[2] = tested on: TRP2-mediated cAMP accumulation; assay: Effect of PTX, CTX, YM-254890 and H89 on TRP2-mediated cAMP accumulation, HEK293 cells expressing TRPR; assay type: cell-based, Homo sapiens; details: TRP2, Control (no inhibitor)
honeybee TRPR [3] = assay: Competitive binding of TRPs to TRPR in HEK293 cells (displacement of TAMRA-TRP2/TAMRA-TRP3); set-up: species or system Apis mellifera; details: for competitive binding (residual TAMRA-TRP binding): HEK293
TRPR [4] = tested on: TRPR
TRPR [5] = tested on: TRPR; remark: listed apart in the source

ALMGFQGVRa [TRP2]
competitive binding (honeybee TRPR [1]; Log (M) -4, replicate 1): 26.6823
competitive binding (honeybee TRPR [1]; Log (M) -4, replicate 2): 24.9306
competitive binding (honeybee TRPR [1]; Log (M) -4, replicate 3): 19.6578
competitive binding (honeybee TRPR [1]; Log (M) -5, replicate 1): 24.5134
competitive binding (honeybee TRPR [1]; Log (M) -5, replicate 2): 25.2301
competitive binding (honeybee TRPR [1]; Log (M) -5, replicate 3): 28.7532
competitive binding (honeybee TRPR [1]; Log (M) -6, replicate 1): 31.3191
competitive binding (honeybee TRPR [1]; Log (M) -6, replicate 2): 30.3643
competitive binding (honeybee TRPR [1]; Log (M) -6, replicate 3): 34.3614
competitive binding (honeybee TRPR [1]; Log (M) -7, replicate 1): 40.7138
competitive binding (honeybee TRPR [1]; Log (M) -7, replicate 2): 35.6042
competitive binding (honeybee TRPR [1]; Log (M) -7, replicate 3): 42.4738
competitive binding (honeybee TRPR [1]; Log (M) -8, replicate 1): 59.0125
competitive binding (honeybee TRPR [1]; Log (M) -8, replicate 2): 64.4899
competitive binding (honeybee TRPR [1]; Log (M) -8, replicate 3): 60.9813
competitive binding (honeybee TRPR [1]; Log (M) -9, replicate 1): 79.5758
competitive binding (honeybee TRPR [1]; Log (M) -9, replicate 2): 73.4731
competitive binding (honeybee TRPR [1]; Log (M) -9, replicate 3): 72.5477
competitive binding (honeybee TRPR [1]; Log (M) -10, replicate 1): 80.4598
competitive binding (honeybee TRPR [1]; Log (M) -10, replicate 2): 86.2073
competitive binding (honeybee TRPR [1]; Log (M) -10, replicate 3): 87.5948
competitive binding (honeybee TRPR [1]; Log (M) -11, replicate 1): 96.7722
competitive binding (honeybee TRPR [1]; Log (M) -11, replicate 2): 92.2369
competitive binding (honeybee TRPR [1]; Log (M) -11, replicate 3): 91.4817
competitive binding (honeybee TRPR [1]; Log (M) -12, replicate 1): 92.3887
competitive binding (honeybee TRPR [1]; Log (M) -12, replicate 2): 98.2368
competitive binding (honeybee TRPR [1]; Log (M) -12, replicate 3): 98.3115
ERK phosphorylation in brain (ERK phosphorylation; NB, replicate 1): 0.0746
ERK phosphorylation in brain (ERK phosphorylation; NB, replicate 2): 0.0650
ERK phosphorylation in brain (ERK phosphorylation; NB, replicate 3): 0.0783
ERK phosphorylation in brain (ERK phosphorylation; NF, replicate 1): 0.5050
ERK phosphorylation in brain (ERK phosphorylation; NF, replicate 2): 0.5454
ERK phosphorylation in brain (ERK phosphorylation; NF, replicate 3): 0.5933
ERK phosphorylation in brain (ERK phosphorylation; PF, replicate 1): 0.2191
ERK phosphorylation in brain (ERK phosphorylation; PF, replicate 2): 0.2416
ERK phosphorylation in brain (ERK phosphorylation; PF, replicate 3): 0.2036
level of phosphorylated ERK in brain (ERK phosphorylation; after injection into NBs, PFs and NFs, vs ddH2O): significantly increased
cAMP accumulation ([2]; Suppl.3A, replicate 1): 9.157
cAMP accumulation ([2]; Suppl.3A, replicate 2): 10.923
cAMP accumulation ([2]; Suppl.3A, replicate 3): 10.206
cAMP accumulation ([2]; Suppl.3B, replicate 1): 86.752
cAMP accumulation ([2]; Suppl.3B, replicate 2): 90.385
cAMP accumulation ([2]; Suppl.3B, replicate 3): 95.777
competitive binding (residual TAMRA-TRP binding) (honeybee TRPR [3]; Log (M) -4, replicate 1): 6.8655
competitive binding (residual TAMRA-TRP binding) (honeybee TRPR [3]; Log (M) -4, replicate 2): 5.4421
competitive binding (residual TAMRA-TRP binding) (honeybee TRPR [3]; Log (M) -4, replicate 3): 6.7148
competitive binding (residual TAMRA-TRP binding) (honeybee TRPR [3]; Log (M) -5, replicate 1): 5.4278
competitive binding (residual TAMRA-TRP binding) (honeybee TRPR [3]; Log (M) -5, replicate 2): 4.8584
competitive binding (residual TAMRA-TRP binding) (honeybee TRPR [3]; Log (M) -5, replicate 3): 7.2943
competitive binding (residual TAMRA-TRP binding) (honeybee TRPR [3]; Log (M) -6, replicate 1): 7.7659
competitive binding (residual TAMRA-TRP binding) (honeybee TRPR [3]; Log (M) -6, replicate 2): 5.3036
competitive binding (residual TAMRA-TRP binding) (honeybee TRPR [3]; Log (M) -6, replicate 3): 8.6345
competitive binding (residual TAMRA-TRP binding) (honeybee TRPR [3]; Log (M) -7, replicate 1): 18.9281
competitive binding (residual TAMRA-TRP binding) (honeybee TRPR [3]; Log (M) -7, replicate 2): 12.1701
competitive binding (residual TAMRA-TRP binding) (honeybee TRPR [3]; Log (M) -7, replicate 3): 11.2282
competitive binding (residual TAMRA-TRP binding) (honeybee TRPR [3]; Log (M) -8, replicate 1): 39.3417
competitive binding (residual TAMRA-TRP binding) (honeybee TRPR [3]; Log (M) -8, replicate 2): 38.9933
competitive binding (residual TAMRA-TRP binding) (honeybee TRPR [3]; Log (M) -8, replicate 3): 33.9876
competitive binding (residual TAMRA-TRP binding) (honeybee TRPR [3]; Log (M) -9, replicate 1): 62.0505
competitive binding (residual TAMRA-TRP binding) (honeybee TRPR [3]; Log (M) -9, replicate 2): 61.6487
competitive binding (residual TAMRA-TRP binding) (honeybee TRPR [3]; Log (M) -9, replicate 3): 64.6985
competitive binding (residual TAMRA-TRP binding) (honeybee TRPR [3]; Log (M) -10, replicate 1): 72.1434
competitive binding (residual TAMRA-TRP binding) (honeybee TRPR [3]; Log (M) -10, replicate 2): 80.3662
competitive binding (residual TAMRA-TRP binding) (honeybee TRPR [3]; Log (M) -10, replicate 3): 73.4408
competitive binding (residual TAMRA-TRP binding) (honeybee TRPR [3]; Log (M) -11, replicate 1): 96.7383
competitive binding (residual TAMRA-TRP binding) (honeybee TRPR [3]; Log (M) -11, replicate 2): 91.1557
competitive binding (residual TAMRA-TRP binding) (honeybee TRPR [3]; Log (M) -11, replicate 3): 93.6625
competitive binding (residual TAMRA-TRP binding) (honeybee TRPR [3]; Log (M) -12, replicate 1): 92.6094
competitive binding (residual TAMRA-TRP binding) (honeybee TRPR [3]; Log (M) -12, replicate 2): 98.3333
competitive binding (residual TAMRA-TRP binding) (honeybee TRPR [3]; Log (M) -12, replicate 3): 97.4974
affinity of TRPR, TRP2 compared with TRP3 (honeybee TRPR [3]; competitive binding assays, HEK293 and Sf21 cells): stronger binding affinity to the receptor TRPR than TRP3; also recorded: higher for TRP2 than for TRP3; also recorded: higher affinity to TRPR
cAMP and Ca2+ signaling, TRP2 compared with TRP3 (TRPR [4]): induced higher cAMP and Ca^2+ signaling than TRP3
increase of cAMP levels (TRPR [4]): more than 10 fold
time by which ERK phosphorylation is near basal levels (TRPR [5]): ≤ 90 min
time of maximal ERK phosphorylation (TRPR [5]): 2 min
